Experimental findings from patent publication US7009052B2, “Sulfonamide derivatives” (Warner Lambert Company LLC, priority 2003, dated 2006) are described below.

In this experiment the target is T1, androgen receptor (Homo sapiens, UniProt P10275).
T1 sequence (P10275 1-920 Q868H): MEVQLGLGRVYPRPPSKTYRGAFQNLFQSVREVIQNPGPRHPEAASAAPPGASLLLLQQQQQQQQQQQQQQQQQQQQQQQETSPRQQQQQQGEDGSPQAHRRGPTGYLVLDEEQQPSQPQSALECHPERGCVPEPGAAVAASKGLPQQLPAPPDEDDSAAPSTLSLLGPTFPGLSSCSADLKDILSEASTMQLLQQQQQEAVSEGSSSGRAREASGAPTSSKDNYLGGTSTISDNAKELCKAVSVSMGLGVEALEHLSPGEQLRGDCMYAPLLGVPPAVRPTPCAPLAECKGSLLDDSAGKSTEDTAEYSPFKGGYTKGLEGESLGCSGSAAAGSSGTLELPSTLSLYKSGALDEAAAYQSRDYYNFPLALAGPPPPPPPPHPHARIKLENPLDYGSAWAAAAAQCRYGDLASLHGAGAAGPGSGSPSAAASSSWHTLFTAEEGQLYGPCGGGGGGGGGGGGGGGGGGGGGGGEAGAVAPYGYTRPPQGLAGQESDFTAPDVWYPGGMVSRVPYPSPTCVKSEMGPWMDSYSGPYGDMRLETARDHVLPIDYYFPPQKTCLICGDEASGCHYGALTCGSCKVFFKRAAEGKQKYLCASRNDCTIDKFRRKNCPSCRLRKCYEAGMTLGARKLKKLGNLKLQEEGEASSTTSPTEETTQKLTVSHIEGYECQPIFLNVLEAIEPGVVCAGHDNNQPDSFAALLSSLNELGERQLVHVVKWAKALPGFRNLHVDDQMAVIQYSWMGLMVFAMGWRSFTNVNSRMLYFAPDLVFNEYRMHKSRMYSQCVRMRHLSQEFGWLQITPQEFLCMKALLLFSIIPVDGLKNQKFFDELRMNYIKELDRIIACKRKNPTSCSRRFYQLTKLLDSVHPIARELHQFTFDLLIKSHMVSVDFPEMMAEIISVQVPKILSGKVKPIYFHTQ
Description: AR Antagonist Cell Assay (MMTV-luciferase reporter, DHT-induced). The class given is cell-based. The note with it: MDA-MB453-MMTV clone 54-19 cells, 100 pM DHT, 17 hr. In short, it runs like this: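 Stably transfected MDA-MB453 cells carrying an ARE-containing MMTV promoter–firefly luciferase reporter, pretreated 30 min with compound at 10 uM or 1 uM in 1% charcoal-treated serum medium. Then stimulated with 100 pM DHT for 17 hr at 37° C. and luminescence read; expressed as % inhibition of DHT-induced signal.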

Where only a bound is given, the exact number is not on record here.

The compound `Cn1c(=O)cc(C(F)(F)F)c2cc(S(=O)(=O)NCCc3c[nH]c4ccccc34)ccc21` [Example 60, 1-Methyl-2-oxo-4-trifluoromethyl-1,2-dihydroquinoline-6-sulfonicacid [2-(1H-indol-3-yl)ethyl]amide] displayed an IC50 of 6330 nM.

For the compound `Cn1c(=O)cc(C(F)(F)F)c2cc(S(=O)(=O)NCCSC(C)(C)C)ccc21` [Example 61, 1-Methyl-2-oxo-4-trifluoromethyl-1,2-dihydroquinoline-6-sulfonicacid (2-tert-butylsulfanylethyl)amide], inhibition was half-maximal at 1530 nM (IC50).

`Cn1c(=O)cc(C(F)(F)F)c2cc(S(=O)(=O)NCc3ccccc3C(F)(F)F)ccc21` [Example 62, 1-Methyl-2-oxo-4-trifluoromethyl-1,2-dihydroquinoline-6-sulfonicacid 2-trifluoromethyl-benzylamide]: the IC50 was 3920 nM. The value for `Cn1c(=O)cc(C(F)(F)F)c2cc(S(=O)(=O)NCCSCc3c(F)cccc3Cl)ccc21` [Example 63, 1-Methyl-2-oxo-4-trifluoromethyl-1,2-dihydroquinoline-6-sulfonicacid [2-(2-chloro-6-fluorobenzylsulfanyl)ethyl]-amide] was > 10000 nM. With `O=c1cc(C(F)(F)F)c2cc(S(=O)(=O)NCc3cccnc3)ccc2o1` [Example 64, 2-Oxo-4-trifluoromethyl-2H-chromene-6-sulfonic acid(pyridin-3-ylmethyl)amide] the figure was > 10000 nM. The value for `CC(C)(NS(=O)(=O)c1ccc2oc(=O)cc(C(F)(F)F)c2c1)c1ccccc1` [Example 65, 2-Oxo-4-trifluoromethyl-2H-chromene-6-sulfonic acid (1-methyl-1-phenylethyl)amide] was > 10000 nM. As for `CSc1ccccc1CNS(=O)(=O)c1ccc2oc(=O)cc(C(F)(F)F)c2c1` [Example 66, 2-Oxo-4-trifluoromethyl-2H-chromene-6-sulfonic acid 2-methylsulfanylbenzylamide], the IC50 is > 10000 nM. With `O=c1cc(C(F)(F)F)c2cc(S(=O)(=O)NCCc3c[nH]c4ccccc34)ccc2o1` [Example 67, 2-Oxo-4-trifluoromethyl-2H-chromene-6-sulfonic acid [2-(1H-indol-3-yl)ethyl]amide] the figure was > 10000 nM; with `CCCCN(CCCC)S(=O)(=O)c1ccc2[nH]c(=O)cc(C(F)(F)F)c2c1` [Example 68, 2-Oxo-4-trifluoromethyl-1,2-dihydroquinoline-6-sulfonic aciddibutylamide], 410 nM; with `CCCCN(CC)S(=O)(=O)c1ccc2[nH]c(=O)cc(C(F)(F)F)c2c1` [Example 69, 2-Oxo-4-trifluoromethyl-1,2-dihydroquinoline-6-sulfonic acidbutylethylamide], 200 nM. `CC(C)N(C)S(=O)(=O)c1ccc2[nH]c(=O)cc(C(F)(F)F)c2c1` [Example 70, 2-Oxo-4-trifluoromethyl-1,2-dihydroquinoline-6-sulfonic acidisopropylmethylamide] showed an IC50 of 550 nM.

Consider `O=c1cc(C(F)(F)F)c2cc(S(=O)(=O)N(CCO)Cc3ccccc3)ccc2[nH]1` [Example 71, 2-Oxo-4-trifluoromethyl-1,2-dihydroquinoline-6-sulfonic acidbenzyl(2-hydroxyethyl)amide], for which the IC50 stood at 1310 nM. Regarding `CN(C)CCN(C)S(=O)(=O)c1ccc2[nH]c(=O)cc(C(F)(F)F)c2c1` [Example 72], the IC50 was > 10000 nM. With `CCCN(CC1CC1)S(=O)(=O)c1ccc2[nH]c(=O)cc(C(F)(F)F)c2c1` [Example 73, 2-Oxo-4-trifluoromethyl-1,2-dihydroquinoline-6-sulfonic acidcyclopropylmethyl-propylamide] the figure was 550 nM; with `CCCCCN(CCO)S(=O)(=O)c1ccc2[nH]c(=O)cc(C(F)(F)F)c2c1` [Example 74, 2-Oxo-4-trifluoromethyl-1,2-dihydroquinoline-6-sulfonic acid(2-hydroxyethyl)-pentylamide], 290 nM; with `CN(C1CCCCC1)S(=O)(=O)c1ccc2[nH]c(=O)cc(C(F)(F)F)c2c1` [Example 75, 2-Oxo-4-trifluoromethyl-1,2-dihydroquinoline-6-sulfonic acidcyclohexylmethylamide], 5720 nM. On to `CCCCN(C)S(=O)(=O)c1ccc2[nH]c(=O)cc(C(F)(F)F)c2c1` [Example 76, 2-Oxo-4-trifluoromethyl-1,2-dihydroquinoline-6-sulfonic acidbutylmethylamide], for which the concentration for half-maximal inhibition (IC50) was found to be 210 nM. Regarding `CN(CCC#N)S(=O)(=O)c1ccc2[nH]c(=O)cc(C(F)(F)F)c2c1` [Example 77, 2-Oxo-4-trifluoromethyl-1,2-dihydroquinoline-6-sulfonic acid(2-cyanoethyl)methylamide], the IC50 stood at 1040 nM. The value for `CN(CCc1ccccc1)S(=O)(=O)c1ccc2[nH]c(=O)cc(C(F)(F)F)c2c1` [Example 78, 2-Oxo-4-trifluoromethyl-1,2-dihydroquinoline-6-sulfonic acidmethylphenethylamide] was 150 nM; that for `CCN(Cc1ccccc1)S(=O)(=O)c1ccc2[nH]c(=O)cc(C(F)(F)F)c2c1` [Example 79, 2-Oxo-4-trifluoromethyl-1,2-dihydroquinoline-6-suifonic acidbenzylethylamide] was 390 nM. Turning to `COCCN(CCOC)S(=O)(=O)c1ccc2[nH]c(=O)cc(C(F)(F)F)c2c1` [Example 80, 2-Oxo-4-trifluoromethyl-1,2-dihydroquinoline-6-sulfonic acidbis(2-methoxyethyl)amide], the IC50 was > 10000 nM. With `O=c1cc(C(F)(F)F)c2cc(S(=O)(=O)Nc3cccnc3)ccc2[nH]1` [Example 81, 2-Oxo-4-trifluoromethyl-1,2-dihydroquinoline-6-sulfonic acidpyridin-3-ylamide] the figure was > 10000 nM. With `Cc1cccc(NS(=O)(=O)c2ccc3[nH]c(=O)cc(C(F)(F)F)c3c2)c1` [Example 82, 2-Oxo-4-trifluoromethyl-1,2-dihydroquinoline-6-sulfonic acidm-tolylamide] the figure was 830 nM; with `Cc1ccc(NS(=O)(=O)c2ccc3[nH]c(=O)cc(C(F)(F)F)c3c2)cc1` [Example 83, 2-Oxo-4-trifluoromethyl-1,2-dihydroquinoline-6-sulfonic acidp-tolylamide], 1140 nM; with `O=c1cc(C(F)(F)F)c2cc(S(=O)(=O)Nc3ccc(F)cc3)ccc2[nH]1` [Example 84, 2-Oxo-4-trifluoromethyl-1,2-dihydroquinoline-6-sulfonic acid(4-fluorophenyl)amide], 7080 nM. The value for `Cc1cc(NS(=O)(=O)c2ccc3[nH]c(=O)cc(C(F)(F)F)c3c2)n(C)n1` [Example 85, 2-Oxo-4-trifluoromethyl-1,2-dihydroquinoline-6-sulfonic acid(2,5-dimethyl-2H-pyrazol-3-yl)amide] was > 10000 nM.

The compound `C#Cc1ccc(NS(=O)(=O)c2ccc3[nH]c(=O)cc(C(F)(F)F)c3c2)cc1` [Example 86, 2-Oxo-4-trifluoromethyl-1,2-dihydroquinoline-6-sulfonic acid(4-ethynylphenyl)amide] yielded an IC50 of 450 nM. The value for `N#Cc1cccc(NS(=O)(=O)c2ccc3[nH]c(=O)cc(C(F)(F)F)c3c2)c1` [Example 87, 2-Oxo-4-trifluoromethyl-1,2-dihydroquinoline-6-sulfonic acid(3-cyanophenyl)amide] was 3550 nM.

As a reminder, the IC50 is the midpoint of a concentration-inhibition curve.
